Measured values: the NIST ThermoML archive (doi:10.1021/je6005423)

What was measured:
[1] = Crystal
[2] = Molar enthalpy of transition or fusion; details: Crystal
[3] = molar heat capacity at constant pressure; details: 101.33 kPa

CN(C)c1ccncc1 [4-(dimethylamino)pyridine]
Details	Molar enthalpy of transition or fusion, Adiabatic calorimetry [kcal/mol]	Molar enthalpy of transition or fusion, DSC [kcal/mol]	Normal melting temperature, Adiabatic calorimetry [°C]	Normal melting temperature, DTA [°C]
[1]	–	–	113.94	114.0
[2]	5.17	5.17	–	–

[3], Crystal
Details	molar heat capacity at constant pressure [J/K/mol]
80.03 K	64.47
83.52 K	66.81
86.44 K	69.05
89.41 K	71.03
92.44 K	72.95
95.51 K	74.9
98.51 K	76.86
101.43 K	78.68
104.42 K	80.51
107.48 K	82.3
110.47 K	83.92
113.41 K	85.67
116.41 K	87.31
119.47 K	89.01
122.49 K	90.57
125.46 K	92.11
128.49 K	93.69
131.59 K	95.38
134.65 K	96.78
137.66 K	98.3
140.65 K	99.76
143.69 K	101.22
146.8 K	102.9
149.88 K	104.47
152.93 K	105.97
155.94 K	107.42
158.93 K	108.62
161.98 K	109.91
165.1 K	111.54
168.19 K	113.06
171.25 K	114.49
174.28 K	115.97
177.29 K	117.2
180.27 K	118.57
183.32 K	120.19
186.44 K	121.88
189.53 K	123.23
192.6 K	124.43
195.65 K	125.95
198.67 K	127.3
201.68 K	128.65
204.66 K	130
207.72 K	131.46
210.84 K	133.09
213.94 K	134.61
217.02 K	135.82
220.08 K	139.06
223.12 K	141.26
226.12 K	143.32
229.09 K	145.3
232.06 K	146.84
235.11 K	149.01
238.15 K	150.96
241.18 K	152.05
244.19 K	153.79
247.18 K	155.15
250.16 K	156.56
253.13 K	157.38
256.16 K	158.57
259.24 K	159.8
262.29 K	161.74
265.4 K	163.21
268.51 K	165.52
271.55 K	167.5
274.51 K	168.7
277.42 K	169.84
280.39 K	171.69
283.34 K	173.55
286.27 K	175.43
289.25 K	177.99
292.28 K	179.13
295.28 K	180.15
298.29 K	181.32
301.34 K	183.53
304.44 K	184.83
307.47 K	185.41
310.42 K	187.12
313.4 K	188.44
316.42 K	189.79
319.4 K	191.08
322.4 K	192.54
325.41 K	193.75
328.42 K	194.7
331.5 K	195.13
334.53 K	196.95
337.56 K	198.33
340.67 K	200.84
342.97 K	199.88
343.66 K	201.99
343.86 K	200.32
345.56 K	201.09
346.45 K	202.23
346.7 K	203.24
348.77 K	203.52
349.62 K	204.76
349.67 K	205.23
351.86 K	205.79
352.63 K	206.7
352.69 K	207.19
354.94 K	207.38
355.72 K	208.46
355.82 K	209.44
358.07 K	209.19
358.46 K	210.78
359.14 K	211.21
361.26 K	211.54
361.64 K	213.95
362.4 K	212.78
364.46 K	214.96
364.97 K	216.45
365.52 K	215.57
367.64 K	216.47
368.27 K	219.21
368.63 K	217.48
370.81 K	219.17
371.06 K	221.32
371.59 K	220.81
373.98 K	222.94
374.28 K	223.05
374.54 K	223.68
377.12 K	225.02
377.36 K	225
377.66 K	225.68
380.18 K	228.35
380.23 K	226.87
380.77 K	227.73
383.33 K	231.81

[3], Liquid, Small (less than 1 g) adiabatic calorimetry
Details	molar heat capacity at constant pressure [J/K/mol]
388.4 K	231.37
389.73 K	233.89
389.99 K	232.72
390.88 K	233.99
392.95 K	234.74
393.17 K	234.28
393.33 K	235.41
395.77 K	236.28
396.07 K	235.35
396.35 K	235.97
398.22 K	237.66
399.18 K	236.11
399.52 K	236.69
402.29 K	237.05
402.68 K	237.16
